Here are results for one compound from PMC6529808 (Metallomics : integrated biometal science, 2018).

The target of the test is MhuDCH (Mycobacterium tuberculosis, UniProt P9WKH3). The class given is binding. The conditions noted are these: second site (MhuD-diheme); 5 μM protein, 50 mM Tris pH 7.4, 150 mM NaCl.
Sequence of MhuDCH (P9WKH3 whole entry): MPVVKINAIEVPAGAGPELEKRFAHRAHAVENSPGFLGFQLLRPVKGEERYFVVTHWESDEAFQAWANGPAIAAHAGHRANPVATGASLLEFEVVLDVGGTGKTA

Compound `C=CC1=C(C)C2=Cc3c(C=C)c(C)c4[n]3[Fe][n]3c(c(C)c(CCC(=O)O)c3=CC3=NC(=C4)C(C)=C3CCC(=O)O)=CC1=N2` [heme] had a Kd2 of 3.3 ± 1.1 µM.
